These results are taken from patent US11446304B2, “CDC-7-inhibitor compounds and use thereof for the treatment of neurological conditions” (CONSEJO SUPERIOR DE INVESTIGACIONES CIENTIFICAS (CSIC), priority 2017, dated 2022).

SMILES strings stand for the structures.

For one data set, the target named is T1, human recombinant CDC7 (Homo sapiens, UniProt O00311).
T1 construct: purchased Promega V5089
The data set can be described thus: CDC7 inhibition measurement (ADP-Glo technology). In kind it is biochemical. The following applies: ATP 10 μM, 60 min at room temperature; read-out: CDC7 ADP-Glo ™ CI50. The protocol:
The method used is a non-radioactive enzyme inhibition assay using human recombinant CDC7. It is based on luminometric quantification of inhibition using the ADP-Glo™ Kinase Kit. In this test the luminescent signal correlates positively with the amount of adenosine diphosphate (ADP) and the activity of the kinase. […]
CDC7 enzyme inhibition studies were conducted using the promega kit: ADP-Glo™ Kinase Assay+CDC7/DBF4 Kinase Enzyme System (Catalogue No. V5089). ATP and other reagents were purchased in Sigma-Aldrich (St. Louis, Mo.). The trials were performed in a buffer solution using 96-well plates. The compound to be tested (5 μL, 40 μM dissolved in DMSO 4%) was added to each well followed by the enzyme (5 μL, 25 ng/well), ATP (5 μL, final concentration in well 10 μM) and PDKtidE (5 μL, 4 μg/well). It was then incubated for 60 minutes at room temperature and the reagent ADP-Glo™ (20 μL) was added and incubated again for 40 min at room temperature. After incubation, the kinase detection agent (40 μL) was added and incubated for 30 min at room temperature. Finally, the luminescence (integration time of 0.5-1 sec) was measured using a POLARstar Optima multimode reader polarimeter. Inhibition activities were calculated as a function of maximum activity, measured in the absence of inhibitor.
(In general: ADP-Glo turns the ADP formed in a reaction into a luminescent signal.)

A short description of data set [1]: PAMPA blood-brain barrier permeation (porcine brain lipid). Format: in vitro ADME. The settings on record: for Papp at 2.5 h: PAMPA-BHE, PBS pH 7.4/EtOH 70:30, 2 h 30 min at 25° C., mean ± SD, read-out: Pe; for PAMPA prediction of central nervous system (CNS) penetration: from Pe in PAMPA-BHE. From the text: An essential requirement for drugs for the treatment of neurodegenerative diseases is the ability to cross the blood-brain barrier (BBB), as otherwise they could not act on the target of interest. Therefore, for compounds that are not permeable or located in the area of uncertainty, it may be necessary to properly convey a pharmaceutical formulation through methods known to an expert in the field, such as encapsulation. This capability can be predicted in vitro using a method known by the acronym PAMPA (Parallel Artificial Membrane Permeability Assay) described by Di et al (Di, L.; Kerns, E. H.; Fan, K.; McConnell, O. J.; Carter, G. T. Eur. J. Med. Chem. 2003, 38 (3), 223-232) and which has subsequently been fine-tuned in our research group. This method allows predicting the effective permeability through artificial membranes by means of a passive diffusion process.
First of all, it is necessary to validate the method, for which 10 commercial compounds are used whose penetration capacity in the central nervous system (CNS) is known and which are to be specified below, obtaining in this case a good linear correlation between the experimental permeability values (Pe) and those described (FIG. 1). This correlation line obtained following the pattern described in the bibliography allows establishing the limits to predict whether or not a compound can cross the blood-brain barrier. Thus, a compound is considered BBB permeable (SNC+) if it has a permeability>4.48×10^−6 cm-s^−1.
For the procedure, between 3-5 mg of caffeine, desipramine, enoxacin, hydrocortisone, ofloxacin, piroxicam and testosterone, 12 mg of promazine and 25 mg of atenolol and verapamil were taken and dissolved in EtOH (1000 μL). 100 μL of these solutions were taken and EtOH (1400 μL) and phosphate buffer (PBS) pH=7.4 (3500 μL) were added in order to achieve a final EtOH concentration of 30% v/v in solution. Finally, the dissolutions were filtered.
On the other hand, a PBS/EtOH solution (70:30) was added to each well of the acceptance plate (180 μL). The donor plate was impregnated with a porcine brain lipid solution (4 μL) dissolved in dodecane (20 mg mL^−1). After 5 min, dissolution of each compound was added to this plate (180 μL).
Of the compounds 1 to 10 evaluated, 1-2 mg were taken and dissolved in EtOH (1500 μL) and phosphate buffer (PBS) pH=7.4 (3500 μL), filtered and added to the donor plate. With these solutions, the wavelengths at which the compounds absorb are determined and the initial absorbance levels at these wavelengths are measured using a UV absorbance reader. Each sample was analyzed from two to five wavelengths, in three wells and in two independent experiments.
The donor plate was then deposited on the acceptor forming a kind of “sandwich” and incubated for 2 hours and 30 minutes at 25° C. In this way, the compounds will pass from the donor plate to the acceptor plate through the porcine brain lipid by passive diffusion. After that time, the donor plate is carefully removed and the concentration and final absorbance of both commercial and synthesized compounds is determined. The results obtained are expressed as the mean of the measurements [standard deviation (SD)] of the different experiments carried out and are shown in table 2.

Data set [2] relates to TDP-43 phosphorylation (S409/410). The data set can be described thus: Effect on phosphorylation of TDP-43 (western blot). Format: cell-based, human. The following applies: SH-SY5Y cells, 24 h incubation with ethacrynic acid, FIG. 3. Here is the method: FIG. 3. Sample of the effect of CDC7 inhibitors (compounds 1, 8, 9 and 13) on TDP-43 phosphorylation. Quantification and representation of phosphorylated TDP-43 levels by western blot.
To evaluate the levels of TDP-43 phosphorylated in the presence of CDC7 inhibitors (compounds 1 and 8), the cells after 24 h of incubation with ethacrylic acid were washed with PBS and then cold lysed with lysis buffer (50 mM Tris pH 7.4, 150 mM NaCl, 50 mM NaF, 1% Nonidet P-40 and Protease and phosphatase inhibitors (Roche)). The collected cell extracts were centrifuged for 10 minutes at 4,000 rpm. Protein quantification was performed with the Pierce BCA protein assay kit (Thermo Scientific). 10 μg of protein were loaded into the polyacrylamide gel with SDS and subsequently transferred to a polyvinylidene fluoride (PVDF) membrane (Millipore).
On the technique in general: A western blot detects proteins with antibodies after separation by electrophoresis.

Data set [3] has as its system human SH-SY5Y neuroblastoma cells. The data set can be described thus: Neuroprotective effect against ethacrynic acid, cell viability by MTT. The following applies: ethacrynic acid 20 μM for 12 hours, inhibitors at 10 μM, FIG. 2. In kind it is cell-based. The protocol:
FIG. 2. […] The data represent the mean of four different±SEM experiments (*p<0.05).
The human neuroblastoma cell line SH-SY5Y was cultured at 37° C. with 5% CO2 in DMEN medium (Dulbecco's Modified Eagle Medium) enriched with L-glutamine (2 mM), 1% non-essential amino acids, 1% Penicillin/Estreptomycin and 10% fetal bobin serum. In the semiconfluence state, the cells were treated with CDC7 inhibitors (compounds 1 and 8) at different concentrations for 1.30 hours post-addition of the causative agent of TPD-43 phosphorylation; ethacrynic acid ([…]) (Sigma). […] J Immunol Methods. 1987; 89:271-7) and levels of western blot phosphorylated TDP-43 (FIG. 2).

For data set [4], the target named is human recombinant CDC7/DBF4 (Homo sapiens, UniProt O00311). The data set can be described thus: CDC7 inhibition measurement (LanthaScreen Eu kinase binding, FRET). The following applies: CDC7/DBF4 0.5 nM, 60 min at room temperature; read-out: CDC7 Lantha ™ CI50. From the text: The LanthaScreen Eu kinases inhibition assay uses an Alexa marker Fluor™ that binds to a kinase and is detected by the addition of an Eu-marked antibody. The binding of the marker and the antibody to the kinase results in a high degree of FRET, while the displacement of the marker by an inhibitor results in a loss of FRET. Unlike many other kinase activity tests, this is a simple mix and read test, with no developmental stages. This test method has been developed by Life Technologies and identifies competitive ATP kinase inhibitors, making them suitable for the detection of any compound that binds to the ATP site.
human recombinant CDC7/DBF4, sequence (O00311 whole entry): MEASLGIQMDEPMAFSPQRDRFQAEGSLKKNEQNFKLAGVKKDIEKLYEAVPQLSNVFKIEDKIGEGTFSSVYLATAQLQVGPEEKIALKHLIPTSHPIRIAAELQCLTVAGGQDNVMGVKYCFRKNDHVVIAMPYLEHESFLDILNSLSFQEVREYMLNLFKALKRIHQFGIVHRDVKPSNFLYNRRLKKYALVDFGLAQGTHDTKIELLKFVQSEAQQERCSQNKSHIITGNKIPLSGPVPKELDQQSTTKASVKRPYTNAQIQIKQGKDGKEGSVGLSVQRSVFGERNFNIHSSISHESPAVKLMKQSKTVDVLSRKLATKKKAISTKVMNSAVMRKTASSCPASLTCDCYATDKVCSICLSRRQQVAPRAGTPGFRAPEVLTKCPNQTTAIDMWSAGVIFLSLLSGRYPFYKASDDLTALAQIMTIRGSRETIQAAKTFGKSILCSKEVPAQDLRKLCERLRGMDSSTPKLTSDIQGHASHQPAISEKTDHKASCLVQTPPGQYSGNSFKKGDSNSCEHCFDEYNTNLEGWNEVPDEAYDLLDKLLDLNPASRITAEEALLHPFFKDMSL
human recombinant CDC7/DBF4, sequence (Q9UBU7 whole entry partner): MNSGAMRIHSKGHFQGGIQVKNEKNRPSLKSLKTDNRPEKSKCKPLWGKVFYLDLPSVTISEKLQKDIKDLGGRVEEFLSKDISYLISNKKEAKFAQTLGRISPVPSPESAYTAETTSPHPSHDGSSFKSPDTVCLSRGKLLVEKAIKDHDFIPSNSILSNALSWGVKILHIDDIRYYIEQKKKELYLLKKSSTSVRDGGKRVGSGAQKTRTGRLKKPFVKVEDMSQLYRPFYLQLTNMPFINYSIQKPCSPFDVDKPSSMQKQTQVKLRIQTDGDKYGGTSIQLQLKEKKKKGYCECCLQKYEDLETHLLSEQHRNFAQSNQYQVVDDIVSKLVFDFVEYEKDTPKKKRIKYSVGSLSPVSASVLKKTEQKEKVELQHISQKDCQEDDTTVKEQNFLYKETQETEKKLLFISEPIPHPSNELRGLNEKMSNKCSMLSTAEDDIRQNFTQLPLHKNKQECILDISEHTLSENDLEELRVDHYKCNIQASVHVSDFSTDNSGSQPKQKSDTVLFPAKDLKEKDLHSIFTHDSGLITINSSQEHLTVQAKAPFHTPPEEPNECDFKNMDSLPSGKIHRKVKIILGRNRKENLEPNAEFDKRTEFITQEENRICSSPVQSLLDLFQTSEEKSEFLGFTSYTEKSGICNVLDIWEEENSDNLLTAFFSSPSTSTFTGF
The compounds are evaluated at 1% DMSO (final) in the well. A mixture of human recombinant CDC7/DBF4 (0.5 nM), Eu-antiGST antibody (2 nM) and AlexaFluor marker (1 nM) has been used in a buffer of 50 mM HEPES pH 7.5, 0.01% BRIJ-35, 10 mM MgCl2, 1 mM EGTA in white plates of […], low volume, coded (Greiner cat. #784207), 160 nL (100×100% DMSO compound), 3.84 μL (buffer with CDC7/DBF4), 8.0 μL (antibody), 4.0 μL (marker) are added. Agitate 30 s and incubate at room temperature for 60 min. Then measure the fluorescence in the plate reader and analyze the data (Table 1).

T1 sequence (O00311 whole entry): as the sequence (O00311 whole entry) above
T1 sequence (Q9UBU7 whole entry partner): as the sequence (Q9UBU7 whole entry partner) above

The term melting point denotes the temperature of the solid-liquid transition. Turning to `Clc1cccc(CSc2ncnc3[nH]cnc23)c1` [Compound 8, 6-((3-Chlorobenzyl)thio)-9H-purine], the melting point was in the range of 167 to 169 °C. Besides, the IC50 at human recombinant CDC7 turned out to be 5.21 ± 0.38 µM. For the same molecule, in data set [1], the Papp at 2.5 h is 15.1 ± 0.6 ×10⁻⁶ cm/s and the “PAMPA prediction of central nervous system (CNS) penetration” value was “SNC+ (a compound is considered BBB permeable (SNC+) if it has a permeability>4.48×10^−6 cm-s^−1)”. Further, the “phosphorylated TDP-43 levels” value in data set [2] is listed as “reduce phosphorylation of TDP-43”. The “neuroprotective effect (cell viability)” value in data set [3] was “neuroprotective effect”. Moreover, in data set [4], the IC50 is 0.172 µM.

As for `c1ccc(CSc2ncnc3[nH]cnc23)cc1` [Compound 1, 6-(benzylthio)-9H-purine], the IC50 on human recombinant CDC7 was 6.74 ± 0.35 µM. In data set [1], the Papp at 2.5 h came out at 6.2 ± 1.1 ×10⁻⁶ cm/s and the “PAMPA prediction of central nervous system (CNS) penetration” value was “SNC+ (a compound is considered BBB permeable (SNC+) if it has a permeability>4.48×10^−6 cm-s^−1)”. The “phosphorylated TDP-43 levels” value in data set [2] was “reduce phosphorylation of TDP-43”. Also, the “neuroprotective effect (cell viability)” value in data set [3] is recorded as “neuroprotective effect”. Further, in data set [4], the IC50 was found to be 0.125 µM.
